Consider 9 compounds from patent publication US5310930A, “Benzofuranylimidazole derivatives, a process for their preparation and therapeutical compositions containing the same” (priority 1991, dated 1994).

For test [1] the following is noted: Indian J. Chem. 1979, 18B, 254; cited from earlier work.
The conditions of test [2]: Indian J. Chem. 1979, 18B, 254; cited from earlier work. This is another data set of the same source.
A further test has as its target T1, alpha2-adrenoceptor (Rattus norvegicus, UniProt P22909).
T1 sequence (P22909 1-465): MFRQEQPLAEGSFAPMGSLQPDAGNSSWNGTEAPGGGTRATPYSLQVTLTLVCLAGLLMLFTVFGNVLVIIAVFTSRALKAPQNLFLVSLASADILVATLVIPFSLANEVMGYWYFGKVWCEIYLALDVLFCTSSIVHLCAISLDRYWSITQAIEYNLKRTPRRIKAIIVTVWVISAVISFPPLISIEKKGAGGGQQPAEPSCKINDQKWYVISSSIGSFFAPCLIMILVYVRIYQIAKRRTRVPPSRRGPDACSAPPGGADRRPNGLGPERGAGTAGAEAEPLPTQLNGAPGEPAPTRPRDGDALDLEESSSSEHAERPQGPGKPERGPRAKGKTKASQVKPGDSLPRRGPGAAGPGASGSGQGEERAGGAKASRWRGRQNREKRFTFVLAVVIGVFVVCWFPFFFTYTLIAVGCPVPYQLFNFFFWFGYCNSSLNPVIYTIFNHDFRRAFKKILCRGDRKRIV
As to the kind of experiment: Displacement of 3H-clonidine (2 nM) (alpha2-adrenoceptor affinity). Type of test: binding.

The test system of another test is rats. Description: In vivo feeding behavior in rats (cumulative food intake after i.p. administration). More on the design: species or system rat. Particulars: for hyperphagic potency relative to idazoxan: 25 mg/kg i.p. versus idazoxan 10 mg/kg i.p.; for acute hyperphagic effect respect to the control group / cumulative food intake: rats; for acute hyperphagic effect respect to the control group: 1-4 h, P<0.05; for cumulative food intake: N=5. From the text: At present, certain compounds of the invention (Examples 1,2 and 3) have shown an in vivo CNS functional activity, such as: feeding behavior in rats.

For another test, the target named is alpha1-adrenoceptor. Description: Displacement of 3H-prazosin (0.5 nM) (alpha1-adrenoceptor affinity). Type of test: binding. The conditions noted are these: rat cerebral cortex, mean of 10 experiments. As to the method:
(§1) Initial biological evaluation of alpha1 - and alpha2 -adrenoceptor and imidazoline preferring receptor (IR) affinities and selectivities in homogenized rat cerebral cortex were assessed by determining the Ki values of the compounds to displace ^3 H-prazosin ^3 H-clonidine as well as ^3 H-idazoxan in the presence of (-)-adrenaline according to the method of Olmos et al. (J. Neurochem. 1991, 57:1811-1813).
(§2) This in vitro model is particularly useful as an initial screening for studying the affinity and the selectivity of these compounds on the imidazoline receptors.

Test [3] concerns the target imidazoline preferring receptor (IR). Description: Displacement of 3H-idazoxan (4 nM) in the presence of (-)-adrenaline (IR affinity). Type of test: binding, rat. The conditions noted are these: for Ki: 3H-idazoxan (4 nM), (-)-adrenaline (10^-6 M), rat cerebral cortex, mean of 10 experiments; for Selectivity IR/α1: selectivity ratio for IR/alpha1 from Ki values; for Selectivity IR/α2: selectivity ratio for IR/alpha2 from Ki values. As to the method:
as §1, §2

Where [4] appears, read: 3H-clonidine (2 nM), rat cerebral cortex, mean of 10 experiments, read-out: Affinity (Ki) Alpha2.

Where two headings read alike, the source gives them in different places.

`c1ccc2oc(C3=NCCN3)cc2c1`: the antifungal activity entry in test [1] is “without showing any noteworthy activity”. Moreover, in test [2], the antibacterial activity entry is “without showing any noteworthy activity”.

For `Cl.c1ccc2oc(-c3ncc[nH]3)cc2c1` [Example 1, 2-(benzofuran-2-yl)imidazole hydrochloride], the values for the Ki (at alpha2-adrenoceptor; at alpha1-adrenoceptor; in test [3]) were 100 µM, 36.5 µM and 0.089 µM, respectively. For the same compound, in the test with rats, the “hyperphagic potency relative to idazoxan” value was “lower in potency than those induced by idazoxan”. In the test on rats (25 mg/kg i.p.), the “acute hyperphagic effect respect to the control group” value is given as 7-10 fold. The cumulative food intake in the test on rats (25 mg/kg i.p., 1 h) was determined as 3.0 ± 2.0 g/kg body weight; with rats (25 mg/kg i.p., 2 h), 4.0 ± 2.1 g/kg body weight; in the test on rats (25 mg/kg i.p., 4 h) it was 4.8 ± 2.0 g/kg body weight. In addition, the “Selectivity IR/α1” value in test [3] is given as 410. In addition, the “Selectivity IR/α2” value in test [3] is recorded as 1 125.

Turning to `Cl.Cn1ccnc1-c1cc2ccccc2o1` [Example 2, 1-methyl-2-(benzofuran-2-yl)imidazole hydrochloride], the Ki came to 62.1 µM on alpha2-adrenoceptor (setting [4]), 26.2 µM on alpha1-adrenoceptor and 0.015 µM in test [3]. Also, the “hyperphagic potency relative to idazoxan” value in the test on rats was “lower in potency than those induced by idazoxan”. In addition, the “acute hyperphagic effect respect to the control group” value in the test with rats (25 mg/kg i.p.) is on record as 7-10 fold. Further, the cumulative food intake turned out to be 2.7 ± 1.5 g/kg body weight in the test with rats (25 mg/kg i.p., 1 h); 3.0 ± 1.5 g/kg body weight in the test with rats (25 mg/kg i.p., 2 h); 3.6 ± 1.4 g/kg body weight in the test with rats (25 mg/kg i.p., 4 h). In test [3] (data derived from binding studies), the “potency for the I2-imidazoline receptors relative to idazoxan” value is “equally as potent as idazoxan”. In test [3] (data derived from binding studies (Table 1)), the “selectivity relative to idazoxan” value is reported as “much more selective”. In test [3], the Selectivity IR/α1 turned out to be 1740. The Selectivity IR/α2 in test [3] worked out at 4140.

On to `COc1ccc2cc(-c3ncc[nH]3)oc2c1.Cl` [Example 3, 2-(6-methoxybenzofuran-2-yl)imidazole hydrochloride], for which the Ki at alpha2-adrenoceptor (setting [4]) was 56.1 µM. The “hyperphagic potency relative to idazoxan” value in the test on rats is reported as “lower in potency than those induced by idazoxan”. For the same compound, in the test on rats (25 mg/kg i.p.), the “acute hyperphagic effect respect to the control group” value is on record as 7-10 fold. At alpha1-adrenoceptor, this compound had a Ki of 17.8 µM. Moreover, in test [3], the inhibitory constant (Ki) worked out at 0.151 µM, the “Selectivity IR/α1” value came to 118 and the “Selectivity IR/α2” value was found to be 372.

With `Brc1ccc2oc(-c3ncc[nH]3)cc2c1.Cl` [Example 6, 2-(5-bromobenzofuran-2-yl)imidazole hydrochloride], the Ki on alpha2-adrenoceptor (setting [4]) amounted to 68.4 µM. The same compound registered a Ki at alpha1-adrenoceptor of 33.3 µM. For the same compound, in test [3], the Ki was 0.117 µM, the “Selectivity IR/α1” value turned out to be 284 and the “Selectivity IR/α2” value worked out at 584.

Turning to `COc1ccc2oc(-c3ncc[nH]3)cc2c1.Cl` [Example 7, 2-(5-methoxybenzofuran-2-yl)imidazole hydrochloride], the Ki at alpha2-adrenoceptor (setting [4]) was determined as 98.7 µM. In addition, the affinity on alpha1-adrenoceptor, expressed as Ki, was 4.41 µM. In test [3], the Ki is 0.163 µM, the “Selectivity IR/α1” value is given as 27 and the “Selectivity IR/α2” value is given as 605.

With `CCn1ccnc1-c1cc2ccc(OC)cc2o1.Cl` [Example 9, 1-ethyl-2-(6-methoxybenzofuran-2-yl)imidazole hydrochloride], the inhibition constant (Ki) on alpha2-adrenoceptor (setting [4]) was 71.3 µM. On alpha1-adrenoceptor, this compound had a Ki of 22.6 µM. Also, in test [3], the Ki is 0.123 µM, the “Selectivity IR/α1” value is reported as 184 and the “Selectivity IR/α2” value was 580.

On to `c1ccc2c(c1)OCC(C1=NCCN1)O2` (stereo not drawn) [Idazoxan, reference compound], for which the cumulative food intake was found to be 3.7 ± 1.2 g/kg body weight with rats (10 mg/kg i.p., 1 h); 5.6 ± 2.1 g/kg body weight with rats (10 mg/kg i.p., 2 h); 7.4 ± 2.3 g/kg body weight with rats (10 mg/kg i.p., 4 h). Besides, the values for the Ki (at alpha1-adrenoceptor; in test [3]) were 0.091 µM and 0.014 µM, respectively.

As to `COC1(C2=NCCN2)COc2ccccc2O1` (stereo not drawn) [RX 821002, reference compound], the results for the Ki (at alpha2-adrenoceptor (setting [4]); in test [3]) were 0.0007 µM and 44.9 µM, respectively. Moreover, in test [3], the “Selectivity IR/α2” value came to 0.00002.
